In patent publication US4097487A, “Pyrrolidinyl and piperidinyl benzamide derivatives” (Yamanouchi Pharmaceutical Co., Ltd., priority 1975, dated 1978):
Where a name gives a salt, the structure may show the parent alone. Read-outs that look alike come from different tables or passages of the source.

Columns and labels:
[1] = system: apomorphine-induced stereotyped behavior; assay: Activity of reducing the apomorphine-induced stereotyped behavior (Experiment I); type: in vivo, rat (male, Wistar); details: sc, read-out: ED50, activity of reducing apomorphine-induced stereotyped behavior
[2] = system: conditioned avoidance response; assay: Activity of reducing the conditioned avoidance response, shuttle box (Experiment II a); type: in vivo, rat (male, Wister); details: sc, read-out: ED50, activity of reducing the conditioned avoidance response
Description: (a) Activity of reducing the conditioned avoidance response:
By a shuttle box method using rats (male, Wister, about 300 g.), a test sample was administered subcutaneously to the rats, after 30 minutes, a conditioned stimulation (buzzer noise for at longest 5 seconds) was applied, and then the avoidance response was observed. Then, from the relation of the ratio of inhibition of avoidance response and the amount of the test sample used, ED50 was determined. In addition, the training of applying an electric stimulation (A.C. 40 volts) as an unconditioned stimulation from a grid on a floor for at longest 5 seconds was applied to rats at 20 times/day for 6 days and the rats showing the ratio of avoidance response of higher than 80% were used in the experiment.

[3] = system: methamphetamin-induced stereotyped behavior; assay: Activity of reducing the methamphetamin-induced stereotyped behavior (Experiment II b); type: in vivo, rat (male, Wister); details: sc, read-out: ED50, activity of reducing the methamphetamin-induced stereotyped behavior
Description: (b). Activity of reducing the methamphetamin-induced stereotyped behavior:
A test sample was administered subcutaneously to the rats, after 30 minutes, 5 mg./kg. of methamphetamine was administered intraperitoneally, and then after 60 minutes and 90 minutes since then, the symptom of the methamphetamin-induced stereotyped behavior was observed. From the relation of the ratio of inhibition and the amount of the test sample used, ED50 was determined.

[4] = Cataleptogenic activity (Experiment III a); parameters: species or system mouse (male, ICR); details: in vivo, sc; mouse, 30 min, fore-limbs hung on horizontal rod for 30 second
Description: (a) Cataleptogenic activity:
By referring to the method by Curvoisier et al (Psychotropic drugs, 373(1957)), a test sample was subcutaneously administered to mice (male, ICR, 8 weeks age) and after 30 minutes since then, the both fore-limb was forcibly hung on a horizontal metallic rod of 2 mm. diameter placed at a height of 6 cm. and when the mouse was kept in that state for 30 second, the activity of the mouse was considered to be a positive cataleptogenic activity. From the relation of the ratio of inhibition and the amount of the test sample used, ED50 was determined.

[5] = Acute toxicity, up-down method (Experiment III b); details: in vivo, iv, mouse
Description: A test sample was administered to mice (male, ICR, 8 week age) by an intravenous injection and then LD50 was determined by an up-down method.

[6] = according to the Dutch patent; cited from earlier work
[7] = rat, s.c., 30 min before 1.25 mg/Kg apomorphine i.v., observed after 5, 10, 20 min
[8] = rat, s.c., 30 min before conditioned stimulation, shuttle box
[9] = rat, s.c., 30 min before 5 mg./kg. methamphetamine i.p., observed after 60 and 90 min

Row | Structure (SMILES) | ED50 [1, 7] | ED50 [2, 8] | ED50 [3, 9] | further results
1 | CCN(CCNC(=O)c1cc(Cl)c(N)cc1OC)Cc1ccccc1 [N-[2-(N'-benzyl-N'-ethylamino)ethyl]-4-amino-5-chloro-2-methoxybenzamide] | 0.2 mg/kg | 0.1 mg/kg | 1.8 mg/kg | 
2 | CCN(CCNC(=O)c1cc(Cl)c(N)cc1OC)Cc1ccc(OC)cc1 [N-[2-(N'-p-methoxyphenylmethyl-N'-ethylamino)ethyl]-4-amino-5-chloro-2-methoxybenzamide] | 0.3 mg/kg |  |  | 
3 | COc1cc(C(=O)NCCN(C)Cc2ccccc2)cc(OC)c1OC [N-[2-(N'-benzyl-N'-methylamino)ethyl]-3,4,5-trimethoxybenzamide, reference compound] | > 30 mg/kg |  |  | 
4 | CCS(=O)(=O)c1ccc(OC)c(C(=O)NCC2CCC(C)N2Cc2ccccc2)c1.Cl (stereo not drawn) [N-(1-benzyl-5-methyl-2-pyrrolidinylmethyl)-5-ethylsulfonyl-2-methoxybenzamide hydrochloride] | 0.3 mg/kg | 0.3 mg/kg | 1.8 mg/kg | 
5 | CCN1CCCC1CNC(=O)c1cc(S(=O)(=O)CC)ccc1OC (stereo not drawn) [Sultopiride, reference compound] | 18 mg/kg |  |  | 
6 | COc1cc(C(=O)NC2CCN(Cc3ccccc3)C2)cc(OC)c1OC (stereo not drawn) [N-(1-benzyl-3-pyrrolidinyl)-3,4,5-trimethoxybenzamide, reference compound] | > 10 mg/kg |  |  | 
7 | COc1cc(N)c(Cl)cc1C(=O)NCC1CCC(C)N1Cc1ccccc1 (stereo not drawn) [N-(1-benzyl-5-methyl-2-pyrrolidinylmethyl)-4-amino-5-chloro-2-methoxybenzamide] | 0.18 mg/kg | 0.18 mg/kg | 1 mg/kg | ED50 at 0.5 h [4]: 30 mg/kg; LD50 [5]: 49 mg/kg
8 | CCN(CCNC(=O)c1cc(Cl)c(N)cc1OC)Cc1ccc(Cl)cc1 [N-[2-(N'-p-chlorophenylmethyl-N'-ethylamino)ethyl]-4-amino-5-chloro-2-methoxybenzamide] | 0.18 mg/kg | 0.1 mg/kg | 1 mg/kg | 
9 | CCN(CCNC(=O)c1cc(Cl)c(N)cc1OC)Cc1ccc(F)cc1 [N-[2-(N'-ethyl-N'-p-fluorophenylmethylamino)ethyl]-4-amino-5-chloro-2-methoxybenzamide] | 0.18 mg/kg |  |  | 
10 | COc1cc(N)c(Cl)cc1C(=O)NC1CCN(Cc2ccc(Cl)cc2)C1 (stereo not drawn) [N-(1-p-chlorophenylmethyl-3-pyrrolidinyl)-4-amino-5-chloro-2-methoxybenzamide] | 0.18 mg/kg | 0.1 mg/kg |  | 
11 | COc1cc(N)c(Cl)cc1C(=O)NCCN(C)Cc1ccccc1 [N-[2-(N'-benzyl-N'-methylamino)ethyl]-4-amino-5-chloro-2-methoxybenzamide] | 0.54 mg/kg | 0.2 mg/kg | 3 mg/kg | ED50 at 0.5 h [4]: 60 mg/kg; LD50 [5]: 48 mg/kg
12 | CCN(CCNC(=O)c1cc(S(=O)(=O)CC)ccc1OC)Cc1ccc(Cl)cc1 [N-[2-(N'-p-chlorophenylmethyl-N'-ethylamino)ethyl]-3-ethylsulfonyl-6-methoxybenzamide hydrochloride] | 0.47 mg/kg |  | 3 mg/kg | 
13 | COc1cc(N)c(Cl)cc1C(=O)NC1CCN(Cc2ccccc2)C1 (stereo not drawn) [N-(1-benzyl-3-pyrrolidinyl)-4-amino-5-chloro-2-methoxybenzamide] | 0.22 mg/kg | 0.3 mg/kg | 0.72 mg/kg | 
14 | CCN(CCNC(=O)c1cc(Cl)c(N)cc1OC)Cc1cccc(Cl)c1 [N-[2-(N'-m-chlorophenylmethyl-N'-ethylamino)ethyl]-4-amino-5-chloro-2-methoxybenzamide] | 0.3 mg/kg |  | 1 mg/kg | 
15 | COc1cc(N)c(Cl)cc1C(=O)NC1CCN(C2CCCCC2)C1 (stereo not drawn) [N-(1-cyclohexyl-3-pyrrolidinyl)-4-amino-5-chloro-2-methoxybenzamide, reference compound] | 1.8 mg/kg |  |  | antiemetic activity (in words) [6]: strongest antiemetic activity
16 | CCN1CCCC1CNC(=O)c1cc(S(N)(=O)=O)ccc1OC (stereo not drawn) [Sulpiride, reference compound] | > 100 mg/kg |  |  | 
17 | CN(C)CCCN1c2ccccc2Sc2ccc(Cl)cc21 [Chlorpromazine, reference compound] |  |  |  | ED50 ([1]; Rattus norvegicus): 2.5 mg/kg; ED50 ([2]; Rattus norvegicus): 0.8 mg/kg; ED50 ([3]; Rattus norvegicus): 3 mg/kg; ED50 at 0.5 h [4]: 10 mg/kg; LD50 [5]: 59 mg/kg
18 | CCN(CC)CCNC(=O)c1cc(Cl)c(N)cc1OC [Metoclopramide, reference compound] | 4.1 mg/kg |  |  | 
